In US11236102B2, “Oxabicycloheptane prodrugs” (Lixte Biotechnology, Inc., priority 2015, dated 2022):
Where “and” joins values, the source holds several entries; their conditions need not be identical. Equal values may be shown once. Entries after “also recorded” stand apart in the source; their conditions may differ. Each block holds one compound with its values, some of them ahead of it.

How the values were obtained:
in vivo = conditions: rat, 1.4 mg/kg
Experimental: 113 was dissolved in 4% NaHCO3 in saline for IV administration. The detailed procedure of dosing solution preparation was presented in Appendix I.
15 animals were placed on the study. The animals in IV arm were free access to food and water. For PO dose group, the animals were fasted overnight prior to dosing and the food was resumed 4 hours postdose.
The IV injection was conducted via foot dorsal vein. PO via oral gavage.
Blood collection: The animal is restrained manually. Approximately 200 μL of blood/time point is collected into sodium heparin tube via cardiac puncture for terminal bleeding (anesthetized under carbon dioxide). Blood sample will be put on ice and centrifuged to obtain plasma sample (2000 g, 5 min under 4° C.) within 10 minutes.
Liver collection: The animal will be euthanized with carbon dioxide inhalation. Open abdominal cavity with scissor to expose internal organs. Hold the carcass in an upright position and allow the organs to fall forward. Cut the connective tissues and remove the organs. Then the organs are rinsed with cold saline, dried on filtrate paper, placed into a screw-top tube and weighed, snap frozen by placing into dry-ice immediately.
Brain collection: Make a mid-line incision in the animals scalp and retract the skin. Using small bone cutters and rongeurs, remove the skull overlying the brain. Remove the brain using a spatula and rinse with cold saline, dried on filtrate paper, placed into a screw-top tube and weighed, snap frozen by placing into dry-ice immediately. […] Plasma, brain and liver samples were stored at approximately −80° C. until analysis. The backup samples will be discarded after three weeks after in-life completion unless requested. The unused dosing solutions will be discarded within three weeks after completion of the study.
Pharmacokinetic Analysis Software: The PK parameters were determined by non-compartmental model of non-compartmental analysis tool, Pharsight Phoenix WinNonlin® 6.2 software. […] Concentration data within 80%-120% of LLOQ was considered within normal instrumental variation and presented in the results. Terminal t1/2 calculation: Time points were automatic selected by “best fit” model for terminal half life estimation as the first option. Manual selection was applied when “best fit” could not well define the terminal phase. Results

[1] = Pharmacokinetic study of 157 (iv, po) in SD rats: 157 and endothal in plasma, liver, brain; assay type: in vivo
Experimental: The blood, liver and brain tissue samples were collected at predetermined times from rats. […] Compound were diluted shortly before use in 4% sodium bicarbonate for sterile injection (this is the standard pediatric solution of NaHCO3 with a pH of about 8.5).
Compound 153 was freshly prepared by diluting the drugs shortly before use in 4% sodium bicarbonate for sterile injection (this is the standard pediatric solution of NaHCO3 with a pH of about 8.5). The final concentrations of 153 solutions were 0.25 mg/mL. The 153 solutions were administered via iv or po route at dose volume of 5 ml/kg according to the latest body weight. Compound 157 was freshly prepared by diluting the drugs shortly before use in 4% sodium bicarbonate for sterile injection (this is the standard pediatric solution of NaHCO3 with a pH of about 8.5). […] The 157 solutions were administered via iv or po route at dose volume of 5 ml/kg according to the latest body weight.
Twelve (12) female SD rats per group were dosed by iv with 153 or 157. The rats were fasted overnight prior to dosing, with free access to water. Foods were withheld for 2 hours post-dose. Blood, liver and brain tissue samples in two animals each group were collected at each time point, within 10% of the scheduled time for each time point. Two extra animals were used for analytic method development.
Blood (>0.3 mL) were collected via aorta abdominalis in anaesthetic animals into tubes containing heparin at 15 min, 1, 2, 6, 10 and 24 hours after iv administration. Liver and brain tissues were collected immediately after animal death. The liver and brain tissues were excised and rinsed with cold saline to avoid blood residual. Upon collection, each sample was placed on ice and the blood samples were subsequently centrifuged (4° C., 11000 rpm, 5 min) to separate plasma.
The obtained plasma, liver and brain tissue samples were stored at −70° C. until LC-MS/MS analysis.
Two (2) female SD rats per group were dosed by po with 153 or 157. The rats were fasted overnight prior to dosing, with free access to water. Foods were withheld for 2 hours post-dose. Blood samples (>0.3 mL) were collected via aorta abdominalis in anaesthetic animals into tubes containing heparin at 30 min, 1, 2, 6, 10 and 24 hours after po administration.
To each sample, 30 μL IS-D (for blank samples, 20 μL acetonitrile:water (1:1) was added) and 300 ul acetonitrile was added. The sample mixture was vortexed for approximately 3 min. After centrifugation at 10000 rpm for 5 min at 4° C., 100 μL of the upper layer was transferred to a new tube and added 200 μL 0.4% formic acid in water (pH6.0). The mixture was vortexed for approximately 3 min before injected onto the LC/MS/MS system for analysis.
On the day of the assay, the frozen liver and brain samples were thawed unassisted at room temperature. An about 200 mg weighed sample of each thawed tissue was placed into a plastic tube with water (0.6 mL) to facilitate homogenization. Tissue processing was conducted using a homogenizer for approximately 1 min, […] homogenate was transferred into a fresh Eppendorf tube. To each tube, 50 μL IS-D was added and mixed. Then 500 ul acetonitrile was added and the sample mixture was vortexed for approximately 3 min. After centrifugation at 10000 rpm for 5 min at 4° C., 100 μL of the upper layer was transferred to a new tube and evaporate the supernatant to dryness at 35° C. Reconstitute the residue with 200 μL of 0.4% formic acid in water (pH 6.0), and vortex for 3 min, submit for LC-MS/MS analysis.
Frozen unknown plasma samples were completely thawed at room temperature and vortexed thoroughly. With a pipette, 50 μL of plasma was transferred into a 2.0 mL Eppendorf tube. 50 μL of 0.1N HCl and 800 μL ethyl acetate were added into each sample. The sample mixture was vortexed for approximately 3 min.

[2] = Whole blood stability (half-life) and metabolite formation; assay type: in vitro ADME, rat, dog, monkey and human; conditions: for metabolism in whole blood metabolite study: rat, dog
Experimental: (§1) The stability (whole blood, liver S9, SGF, SIF, and PBS buffer) and MDCK-MDR1 monolayer permeability of LB100, LB-100 Carbonate and LB-100 POM were evaluated.
(§2) Samples were analyzed by LC-MS/MS using a SCIEX QTrap 5500 mass spectrometer coupled with an Agilent 1290 HPLC Infinity series, a CTC PAL chilled autosampler, all controlled by Analyst software. After separation on a C18 reverse phase HPLC column (Acquity UPLC HSS T3, 1.8, 2.1×50 mm) using an acetonitrile-water gradient system, peaks were analyzed by mass spectrometry (MS) using […] ionization in MRM mode.
Whole Blood Stability: Experimental Conditions Experimental Procedure: The stock solution was first diluted in acetonitrile at a concentration that is 100× of the desired final concentration. It was incubated in duplicate with whole blood at 37° C. At indicated times, an aliquot was removed from each experimental and control reaction and mixed with three volumes of ice-cold Stop Solution (methanol containing propranolol as internal standard). Stopped reactions were incubated at least ten minutes at −20° C. The samples were centrifuged to remove precipitated protein, and the supernatants were analyzed by LC-MS/MS to quantitate the remaining parent and the formation of metabolites.
Data were converted to % remaining by dividing by the time zero concentration value. Data were fit to a first-order decay model to determine half-life.

[3] = Liver S9 stability and metabolite formation; assay type: in vitro ADME, rat, dog, monkey and human; conditions: presence and absence of NADPH, cross species
Experimental: as §1, §2
Experimental Procedure: Test agent is incubated in duplicate with liver S9 at 37° C. The reaction contains liver S9 protein in 100 mM potassium phosphate, 2 mM NADPH, 3 mM MgCl2, pH 7.4. A control is run for each test agent omitting NADPH to detect NADPH-free degradation. At indicated times, an aliquot is removed from each experimental and control reaction and mixed with an equal volume of ice-cold Stop Solution (methanol, containing internal standard propranolol). Stopped reactions are incubated for 10 minutes at −20° C. Samples are centrifuged to remove precipitated protein, and supernatants are analyzed by LC/MS/MS to quantitate remaining parent and the formation of metabolites. Data are reported as % remaining by dividing by the time zero concentration value.

[4] = fostriecin iv daily for 5 days, phase I trials; cited from earlier work
[5] = iv 1.5 mg/kg, 0.25 hr, individual rats, 1.5 mg/kg
[6] = iv 1.5 mg/kg, 1 hr, individual rats, 1.5 mg/kg
[7] = iv 1.5 mg/kg, 2 hr, individual rats, 1.5 mg/kg
[8] = iv administration of 157 at 1.5 mg/kg
[9] = plasma, 157 1.5 mg/kg IV, individual rats, 1.5 mg/kg
[10] = plasma, 157 1.5 mg/kg PO, individual rats, 1.5 mg/kg

plasma concentration of 113 (in vivo; male, SD, po, 2 hr): 2.15 ng/mL
concentration at 2 hr (in vivo; male, SD, po, plasma concentration of 113): 2.15 ng/mL
AUC(0-t) (in vivo; male, Sprague-Dawley, iv): 155 ng·h/mL
Tmax (in vivo; male, Sprague-Dawley, iv): 15 min
AUC(0-t) (in vivo; male, Sprague-Dawley, po): 15.7 ng·h/mL
AUC(0-t) of 113 (in vivo; male, Sprague-Dawley, po): 15.7 ng·h/mL
Cmax (in vivo; male, Sprague-Dawley, po): 17.7 ng/mL
F of 113 (in vivo; male, Sprague-Dawley, po): 10.1%
Tmax (in vivo; male, Sprague-Dawley, po): 15 min
AUC(0-last) in brain (in vivo; iv): 47.5 ng·h/g
AUC(0-last) in liver (in vivo; iv): 28.1 ng·h/g
Compound: CN1CCN(C(=O)C2C(C(=O)OCC(Cl)(Cl)Cl)[C@H]3CC[C@@H]2O3)CC1 (stereo partly shown) [Compound 113]
clinical symptoms (in vivo): No abnormal clinical symptom was observed

Compound: CCCCCCCOC(=O)C1C2CCC(O2)C1C(=O)N1CCN(C)CC1 (stereo not shown) [Compound 157]
metabolism to endothal in vivo ([1]; 157 administered to rats): metablozied to endothal in vivo; also recorded: converted to endothal in the plasma
oral availability ([1]; 157 at 1.5 mg/kg po to SD rats): poorly orally available
157 plasma concentration ([1]; PO 1.5 mg/kg, 0.5 hr, individual rats, 1.5 mg/kg): 5.92 ng/mL and 6.35 ng/mL
157 plasma concentration ([1]; PO 1.5 mg/kg, 0.5 hr, mean): 6.14 ng/mL
157 plasma concentration ([1]; PO 1.5 mg/kg, 1 hr, individual rats, 1.5 mg/kg): 1.48 ng/mL and 1.26 ng/mL
157 plasma concentration ([1]; PO 1.5 mg/kg, 1 hr, mean): 1.37 ng/mL
157 plasma concentration ([1]; PO 1.5 mg/kg, 2 hr, individual rats, 1.5 mg/kg): 0.303 ng/mL and 0.194 ng/mL
157 plasma concentration ([1]; PO 1.5 mg/kg, 2 hr, mean): 0.249 ng/mL
bioavailability ([1]; female, Sprague-Dawley, rat, in vivo, 157 1.5 mg/kg PO vs IV, mean, read-out: F (bioavailability, BA)): 6.78%
157 brain concentration ([1]; iv 1.5 mg/kg, 0.25 hr, individual rats): 60.0 ng/g
157 liver concentration [1, 5]: 337 ng/g and 257 ng/g
157 plasma concentration [1, 5]: 116 ng/mL and 114 ng/mL
157 brain concentration ([1]; iv 1.5 mg/kg, 0.25 hr, mean): 60.0 ng/g
157 liver concentration ([1]; iv 1.5 mg/kg, 0.25 hr, mean): 297 ng/g
157 plasma concentration ([1]; iv 1.5 mg/kg, 0.25 hr, mean): 115 ng/mL
157 brain concentration [1, 6]: 1.99 ng/g and 2.80 ng/g
157 liver concentration [1, 6]: 29.4 ng/g and 17.6 ng/g
157 plasma concentration [1, 6]: 2.67 ng/mL and 3.57 ng/mL
157 brain concentration ([1]; iv 1.5 mg/kg, 1 hr, mean): 2.40 ng/g
157 liver concentration ([1]; iv 1.5 mg/kg, 1 hr, mean): 23.5 ng/g
157 plasma concentration ([1]; iv 1.5 mg/kg, 1 hr, mean): 3.12 ng/mL
157 brain concentration ([1]; iv 1.5 mg/kg, 2 hr, individual rats): BLQ
157 liver concentration [1, 7]: 6.40 ng/g and 9.72 ng/g
157 plasma concentration [1, 7]: 0.491 ng/mL and 0.556 ng/mL
157 liver concentration ([1]; iv 1.5 mg/kg, 2 hr, mean): 8.06 ng/g
157 plasma concentration ([1]; iv 1.5 mg/kg, 2 hr, mean): 0.524 ng/mL
157 liver concentration ([1]; iv 1.5 mg/kg, 10 hr, individual rats): BLQ
AUClast in brain [1, 8]: 24.6 ng·h/g
AUClast in liver [1, 8]: 152 ng·h/g
AUC [1, 9]: 47.3 ng·h/mL
AUC0-∞ [1, 9]: 47.3 ng·h/mL
Cmax [1, 9]: 116 ng/mL and 114 ng/mL
AUC ([1]; plasma, 157 1.5 mg/kg IV, mean): 47.2 ng·h/mL
AUC0-∞ ([1]; plasma, 157 1.5 mg/kg IV, mean): 47.2 ng·h/mL
AUC [1, 10]: 3 ng·h/mL
AUC0-∞ [1, 10]: 3 ng·h/mL

metabolism in whole blood metabolite study ([2]; monkey, human): metabolized to endothall and LB-100
Compound: CCOC(=O)OCOC(=O)[C@H]1[C@@H](C(=O)N2CCN(C)CC2)[C@@H]2CC[C@H]1O2 [LB-100 Carbonate]
metabolite formation in whole blood half-life study ([2]; blood): formation of endothall and LB-100 were observed

Compound: CN1CCN(C(=O)C2C3CCC(O3)C2C(=O)OCOC(=O)C(C)(C)C)CC1 (stereo not shown) [LB-100 POM Ester]
metabolites observed in liver S9 stability study [3]: metabolites LB-100 and endothall were observed
metabolite formation in whole blood half-life study ([2]; cross species): formation of endothall and LB-100 were observed
metabolism in whole blood metabolite study ([2]; monkey and human): metabolized to endothall and LB-100

Compound: C[C@@](O)(/C=C/[C@H]1CC=CC(=O)O1)[C@@H](C[C@@H](O)\C=C/C=C\C=C\CO)OP(=O)(O)O [fostriecin]
dose limiting toxicity [4]: Dose limiting toxicity was not achieved
major toxicities [4]: reversible non-cumulative increases in serum creatinine and hepatic enzymes
